Laboratory results reported in PMC11822664, “First‐In‐Human Dose Finding Study of Venadaparib (IDX‐1197), a Potent and Selective PARP Inhibitor, in Patients With Advanced Solid Tumors” (Cancer Medicine, 2025).

Assay: Plasma pharmacokinetics, noncompartmental analysis (Day 1 and Day 14)
Assay type: in vivo, human
Protocol: Pharmacokinetic and pharmacodynamic studies were performed during the first cycle of treatment. Plasma samples were analyzed for venadaparib concentration using liquid‐liquid extraction followed by high‐performance liquid chromatography, with detection by mass spectrometry. The plasma concentration–time data were analyzed using noncompartmental analysis (WinNonLin, version 8.0, SAS version 9.4 and R version 3.6.3) to derive pharmacokinetic parameters after the first dose (single‐dose parameters) and after the dose on Day 14 (multiple‐dose parameters). Pharmacodynamic studies were performed by evaluating Poly (ADP‐ribose) in peripheral blood mononuclear cells and quantifying tumor‐tissue lysates using the HT PARP in vivo Pharmacodynamic ELISA Kit II (R&D Systems, 4520‐096‐K).

[1] = day 1, Cohort 10: 240 mg once daily continuously, n=3, mean±SD
[2] = day 14, Cohort 1: 2 mg once daily, 2 weeks on 1 week off, n=3, mean±SD
[3] = day 14, Cohort 2: 5 mg once daily, 2 weeks on 1 week off, n=3, mean±SD
[4] = day 14, Cohort 3: 10 mg once daily, 2 weeks on 1 week off, n=3, mean±SD
[5] = day 14, Cohort 4: 20 mg once daily, 2 weeks on 1 week off, n=3, mean±SD
[6] = day 14, Cohort 5: 20 mg once daily continuously, n=3, mean±SD
[7] = day 14, Cohort 6: 40 mg once daily continuously, n=3, mean±SD
[8] = day 14, Cohort 7: 80 mg once daily continuously, n=3, mean±SD
[9] = day 14, Cohort 8: 120 mg once daily continuously, n=3, mean±SD
[10] = day 14, Cohort 9: 160 mg once daily continuously, n=4, mean±SD
[11] = day 14, Cohort 10: 240 mg once daily continuously, n=3, mean±SD

## O=C(c1cc(Cc2n[nH]c(=O)c3ccccc23)ccc1F)N1CC(CNC2CC2)C1 [venadaparib, Venadaparib]
[1]
  AUClast: 35064.82±10936.96 (31.2%) [22440.89-41684.26] h*ug/L
  Cmax: 4243.33±1097.38 (25.9%) [2980.00-4960.00] ng/mL
  T1/2β: 5.86±0.27 (4.5%) [5.63-6.15] h
  Vz: 58.25±20.01 (34.4%) [45.93-81.34] L
Day 1, Cohort 10: 240 mg once daily continuously, n=3, median (min-max)
  Tmax: 2.03 (1.95-3.87) h
[2]
  AUCinf,ss: 1736.03±1605.80 (92.5%) [457.71-3538.38] h*ug/L
  AUClast,ss: 1364.99±1236.83 (90.6%) [418.50-2764.45] h*ug/L
  Cmax,ss: 164.83±158.82 (96.4%) [55.40-347.00] ng/mL
  T1/2β: 10.12±3.11 (30.8%) [6.53-12.16] h
  Vd,ss: 26.55±15.98 (60.2%) [9.51-41.19] L
Day 14, Cohort 1: 2 mg once daily, 2 weeks on 1 week off, n=3, median (min-max)
  Tmax,ss: 1.95 (0.50-3.00) h
[3]
  AUCinf,ss: 3471.41±2661.23 (76.7%) [854.73-6175.06] h*ug/L
  AUClast,ss: 2104.75±1410.01 (67.0%) [709.76-3529.30] h*ug/L
  Cmax,ss: 274.27±162.91 (59.4%) [90.80-402.00] ng/mL
  T1/2β: 17.56±7.23 (41.1%) [9.22-21.87] h
  Vd,ss: 49.88±26.44 (53.0%) [25.23-77.80] L
Day 14, Cohort 2: 5 mg once daily, 2 weeks on 1 week off, n=3, median (min-max)
  Tmax,ss: 2.92 (2.00-3.00) h
[4]
  AUCinf,ss: 7870.90±9667.28 (122.8%) [1452.44-18989.55] h*ug/L
  AUClast,ss: 4925.17±5146.81 (104.5%) [1287.46-10814.03] h*ug/L
  Cmax,ss: 484.00±194.58 (40.2%) [269.00-648.00] ng/mL
  T1/2β: 12.01±4.70 (39.1%) [8.11-17.22] h
  Vd,ss: 47.43±33.75 (71.2%) [13.09-80.56] L
Day 14, Cohort 3: 10 mg once daily, 2 weeks on 1 week off, n=3, median (min-max)
  Tmax,ss: 1.00 (1.00-6.00) h
[5]
  AUCinf,ss: 4133.27±1804.89 (43.7%) [2714.79-6164.85] h*ug/L
  AUClast,ss: 3664.78±1671.01 (45.6%) [2268.75-5516.31] h*ug/L
  Cmax,ss: 462.00±198.65 (43.0%) [240.00-623.00] ng/mL
  T1/2β: 8.39±1.33 (15.8%) [7.43-9.91] h
  Vd,ss: 68.11±35.43 (52.0%) [34.78-105.328 L
Day 14, Cohort 4: 20 mg once daily, 2 weeks on 1 week off, n=3, median (min-max)
  Tmax,ss: 3.00 (2.08-4.00) h
[6]
  AUCinf,ss: 19641.86±12129.06 (61.8%) [9377.20-33025.96] h*ug/L
  AUClast,ss: 14356.35±8586.68 (59.8%) [7554.53-24004.86] h*ug/L
  Cmax,ss: 1372.33±691.19 (50.4%) [867.00-2160.00] ng/mL
  T1/2β: 12.95±2.11 (16.3%) [10.89-15.11] h
  Vd,ss: 23.71±11.37 (48.0%) [11.24-33.51] L
Day 14, Cohort 5: 20 mg once daily continuously, n=3, median (min-max)
  Tmax,ss: 3.00 (2.00-3.00) h
[7]
  AUCinf,ss: 20437.84±21732.92 (106.3%) [4443.15-45181.74] h*ug/L
  AUClast,ss: 15650.44±15761.44 (100.7%) [4158.86-33618.37] h*ug/L
  T1/2β: 10.05±3.49 (34.7%) [6.03-12.16] h
  Vd,ss: 50.82±32.01 (63.0%) [15.65-78.27] L
Day 14, Cohort 6: 40 mg once daily continuously, n=3, median (min-max)
  Tmax,ss: 2.00 (2.00-4.00) h
[8]
  AUCinf,ss: 35855.66±11046.67 (30.8%) [28487.65-48557.05] h*ug/L
  AUClast,ss: 29755.39±5857.45 (19.7%) [25647.39-36462.67] h*ug/L
  T1/2β: 9.16±2.33 (25.4%) [7.54-11.82] h
  Vd,ss: 29.77±1.44 (4.8%) [28.10-30.63] L
Day 14, Cohort 7: 80 mg once daily continuously, n=3, median (min-max)
  Tmax,ss: 0.50 (0.50-3.00) h
[9]
  AUCinf,ss: 43329.91±51306.71 (118.4%) [9826.55-102396.16] h*ug/L
  AUClast,ss: 34807.85±37475.34 (107.7%) [9506.28-77860.52] h*ug/L
  Cmax,ss: 3650.00±3170.05 (86.9%) [1370.00-7270.00] ng/mL
  T1/2β: 7.15±3.96 (55.4%) [4.86-11.73] h
  Vd,ss: 50.97±33.01 (64.8%) [19.83-85.58] L
Day 14, Cohort 8: 120 mg once daily continuously, n=3, median (min-max)
  Tmax,ss: 2.08 (2.00-3.00) h
[10]
  AUCinf,ss: 64897.81±24747.53 (38.1%) [35388.15-95105.59] h*ug/L
  AUClast,ss: 54295.35±20528.36 (37.8%) [31921.97-80064.80] h*ug/L
  Cmax,ss: 5860.00±2493.69 (42.6%) [3610.00-8190.00] ng/mL
  T1/2β: 9.44±1.74 (18.4%) [7.58-11.70] h
  Vd,ss: 37.11±12.87 (34.7%) [21.26-49.44] L
Day 14, Cohort 9: 160 mg once daily continuously, n=4, median (min-max)
  Tmax,ss: 1.50 (1.00-3.02) h
[11]
  AUCinf,ss: 57242.36±29434.12 (51.4%) [25260.40-83194.93] h*ug/L
  AUClast,ss: 51458.84±25578.53 (49.7%) [23517.49-73719.38] h*ug/L
  Cmax,ss: 4650.00±1574.20 (33.9%) [2840.00-5700.00] ng/mL
  T1/2β: 6.66±0.54 (8.1%) [6.04-7.00] h
  Vd,ss: 50.00±28.79 (57.6%) [28.90-82.80] L
Day 14, Cohort 10: 240 mg once daily continuously, n=3, median (min-max)
  Tmax,ss: 3.05 (1.97-4.00) h
patients
  mean plasma clearance rate: 6.3 L per hour
  mean volume of distribution: 75 L
plasma, biphasic decline
  half-life: approximately 8.7 h
